Laboratory results: US20210052608A1, “METHODS OF TREATING BACTERIAL INFECTIONS WITH MINOCYCLINE” (Melinta Therapeutics, Inc., priority 2018, published 2021)
“Also recorded” adds a separate entry of the source.

How the values were obtained:
[1] = Plasma pharmacokinetics of minocycline, single ascending dose (SAD) phase, 1 hour intravenous infusion; set-up: species or system human (healthy adult subjects); settings: human, in vivo; for half-life: mean, N=8
Experimental: (§1) This example describes outcomes among healthy adult subjects in a randomized, double-blind, placebo-controlled, single- and multiple ascending dose (SAD/MAD) study of 6 intravenous doses (cohorts) ranging from 100 mg to 600 mg of minocycline. […] Within each cohort, subjects received a single dose on Day 1, followed by a loading dose on Day 4, then 7 days of twice-daily dosing (Days 4-10), followed by a single dose on Day 11 as shown in Table 1. Within each cohort, subjects were randomly assigned to minocycline (n=8) or normal saline placebo (n=2). Serial blood and urine samples were collected for pharmacokinetic assessment. All infusions were administered over 1 hour. Plasma samples were obtained at 1 (end-of-infusion), 2, 4, 8, 12, 18, 24, 36, 48, and 72 hours after the start of dosing after single or multiple doses and assayed for minocycline content using a validated HPLC/MS method. Concentration of minocycline in healthy volunteers after a one hour IV infusion is shown in FIG. 1, while concentration of minocycline in healthy volunteers after a loading dose then twice daily dosing for seven days is shown in FIG. 2.

[2] = Plasma pharmacokinetics of minocycline, twice-daily ascending dose (MAD) phase, loading dose then BID dosing for 7 days; set-up: species or system human (healthy adult subjects); settings: human, in vivo; for AUC(0-t): AUC0-t; for clearance: Cl (plasma clearance); for Vd: Vss (volume of distribution at steady state); for half-life: mean; for Cmax: iv
Experimental: as §1

[3] = Safety and tolerability (adverse events) in the SAD/MAD study of intravenous minocycline; type: in vivo, human (healthy adult subjects)
Experimental: This example describes outcomes among healthy adult subjects in a randomized, double-blind, placebo-controlled, single- and multiple ascending dose (SAD/MAD) study of 6 intravenous doses (cohorts) ranging from 100 mg to 600 mg of minocycline. Each cohort consisted of 10 subjects (8 active drug and 2 placebo). Within each cohort, subjects received a single dose on Day 1, followed by a loading dose on Day 4, then 7 days of twice-daily dosing (Days 4-10), followed by a single dose on Day 11 as shown in Table 1. Within each cohort, subjects were randomly assigned to minocycline (n=8) or normal saline placebo (n=2). Serial blood and urine samples were collected for pharmacokinetic assessment.
Safety was assessed throughout the study. Of the adverse events (AE) observed in more than 10% of subjects, the vast majority were assessed by the investigator as likely to be related to study drug (Table 5). A total of 21 subjects out of 57 discontinued the trial. Six of 10 subjects in cohort 4 discontinued during the MAD portion (400 mg BID) of the trial due to mild to moderate dizziness. Dosing was discontinued in the remaining 4 subjects in that cohort and cohorts 5 and 6 were limited to 300 mg BID for the MAD portion of the trial. Four subjects in cohort 6 (600 mg/300 mg) discontinued due to nausea.

[4] = Plasma pharmacokinetics of minocycline, single ascending dose (SAD) phase, 1 hour intravenous infusion; set-up: species or system human (healthy adult subjects); settings: human, in vivo; single 600 mg IV dose, mean, N=9

With `CN(C)c1ccc(O)c2c1C[C@H]1C[C@H]3[C@H](N(C)C)C(O)=C(C(N)=O)C(=O)[C@@]3(O)C(O)=C1C2=O` [minocycline] the “Dose proportionality of exposure” value ([1]; iv) was “increased in a dose proportional fashion with exception of the 500 mg dose”, the AUC(0-inf) ([1]; iv, 100 mg) was 9730 ng·h/mL and the clearance ([1]; iv, 100 mg) was 175 mL/min. The AUC(0-inf) ([1]; iv, 200 mg) was 25900 ng·h/mL, the clearance ([1]; iv, 200 mg) was 137 mL/min and the AUC(0-inf) ([1]; iv, 300 mg) was 39200 ng·h/mL. The clearance ([1]; iv, 300 mg) was 138 mL/min, the AUC(0-inf) ([1]; iv, 400 mg) was 63600 ng·h/mL and the clearance ([1]; iv, 400 mg) was 112 mL/min. It also gave an AUC(0-inf) ([1]; iv, 500 mg) of 53800 ng·h/mL, a clearance ([1]; iv, 500 mg) of 171 mL/min and an AUC(0-inf) ([1]; iv, 600 mg) of 83000 ng·h/mL. It also gave a clearance ([1]; iv, 600 mg) of 135 mL/min, a half-life ([1]; single 100 mg IV dose) of 11.1 h and a half-life ([1]; single 200 mg IV dose) of 13.7 h. It also gave a half-life ([1]; single 300 mg IV dose) of 16.6 h, a half-life ([1]; single 400 mg IV dose) of 17.6 h and a half-life ([1]; single 500 mg IV dose) of 14.4 h. It also gave an AUC(0-t) ([2]; 100 mg) of 27500 ng·h/mL, a clearance ([2]; 100 mg) of 58.2 mL/min and a Vd ([2]; 100 mg) of 72 L. The half-life ([2]; 100 mg, single dose 100 mg, BID dosing 100 mg, N=6) was 15.9 h, the AUC(0-t) ([2]; 200 mg) was 80700 ng·h/mL and the clearance ([2]; 200 mg) was 41.3 mL/min. It also gave a Vd ([2]; 200 mg) of 58.4 L, a half-life ([2]; 200 mg, single dose 200 mg, BID dosing 200 mg, N=6) of 18.2 h and an AUC(0-t) ([2]; 300 mg) of 174000 ng·h/mL. It also gave a clearance ([2]; 300 mg) of 32 mL/min, a Vd ([2]; 300 mg) of 47 L and a half-life ([2]; 300 mg, single dose 300 mg, BID dosing 300 mg, N=7) of 19.8 h. For the same compound, the half-life ([2]; 300 mg, single dose 500 mg, BID dosing 300 mg, N=7) was 18.1 h, the half-life ([2]; 300 mg, single dose 600 mg, BID dosing 300 mg, N=4) was 20.2 h and the half-life ([2]; 300 mg, single dose 300, 500, or 600 mg (pooled), BID dosing 300 mg, N=18) was 19.2 h. It also gave a clearance [2] of 44 mL/min, a Vd [2] of 58.1 L and a Cmax ([2]; 100 mg) of 1710 ng/mL. The Cmax ([2]; 200 mg) was 4590 ng/mL, the Cmax ([2]; 300 mg) was 8910 ng/mL and the Maximum tolerated multi-dose ([3]; administered twice daily, IV) was 300 mg. The “Subjects discontinued due to nausea in cohort 6” value ([3]; cohort 6 (600 mg/300 mg)) was “Four”, the “Subjects reporting study drug related adverse events, %” value ([3]; human, in vivo) was 79.9% and the “Subjects who discontinued the trial, total” value ([3]; human, in vivo) was 21. The “Subjects with dizziness, %” value ([3]; human, in vivo) was 59.4%, the “Subjects with dizziness, number” value ([3]; human, in vivo) was 41 and the “Subjects with moderate nausea and/or dizziness, number” value ([3]; human, in vivo) was 9. For the same compound, the “Subjects with nausea, %” value ([3]; human, in vivo) was 50.7%, the “Subjects with nausea, number” value ([3]; human, in vivo) was 35 and the “Subjects discontinued from study drug in the 400 mg cohort (cohort 4)” value ([3]; human, in vivo, 7 days) was 6. For the same compound, the “Tolerability of single intravenous doses” value ([3]; single IV doses up to 600 mg) was “tolerated reasonably well”, the Serious adverse events ([3]; whole SAD/MAD study, 100 mg to 600 mg IV) was “No serious adverse events occurred; also recorded: No serious adverse events (SAEs) were reported” and the “Most common adverse effects” value ([3]; whole study) was “mild nausea and dizziness”. For the same compound, the half-life [4] was 17.3 h.
